Results published in article PMC12748989 (Nature Communications, 2025).

Columns and labels:
[1] = system: PBMC; details: 12.5 µM
[2] = system: MDA-MB-231 cells

Structure (SMILES)	Average (percentage cell inhibition), Mastoparan PBMC [1] [%]	Average (percentage cell inhibition), Dmastoparan MDA-MB231 12.5uM [2] [%]	Average 6.5uM [2] [%]
CC[C@H](C)[C@H](N)C(=O)N[C@@H](CC(N)=O)C(=O)N[C@@H](CC(C)C)C(=O)N[C@@H](CCCCN)C(=O)N[C@@H](C)C(=O)N[C@@H](CC(C)C)C(=O)N[C@@H](C)C(=O)N[C@@H](C)C(=O)N[C@@H](CC(C)C)C(=O)N[C@@H](C)C(=O)N[C@@H](CCCCN)C(=O)N[C@@H](CC(N)=O)C(=O)N[C@H](C(=O)N[C@@H](CC(C)C)C(N)=O)[C@@H](C)CC [N12]	5.917	52.6491	
CC[C@H](C)[C@H](N)C(=O)N[C@@H](C)C(=O)N[C@@H](CC(C)C)C(=O)N[C@@H](CCCCN)C(=O)N[C@@H](C)C(=O)N[C@@H](CC(C)C)C(=O)N[C@@H](C)C(=O)N[C@@H](C)C(=O)N[C@@H](CC(C)C)C(=O)N[C@@H](C)C(=O)N[C@@H](CCCCN)C(=O)N[C@@H](CCCCN)C(=O)N[C@H](C(=O)N[C@@H](CC(C)C)C(N)=O)[C@@H](C)CC [A2]	9.183	38.1038	
CC[C@H](C)[C@H](N)C(=O)N[C@@H](CC(N)=O)C(=O)N[C@@H](CC(C)C)C(=O)N[C@@H](CCCCN)C(=O)N[C@@H](Cc1c[nH]c2ccccc12)C(=O)N[C@@H](CC(C)C)C(=O)N[C@@H](C)C(=O)N[C@@H](C)C(=O)N[C@@H](CC(C)C)C(=O)N[C@@H](C)C(=O)N[C@@H](CCCCN)C(=O)N[C@@H](CCCCN)C(=O)N[C@H](C(=O)N[C@@H](CC(C)C)C(N)=O)[C@@H](C)CC [W5]	88.7179	97.3063	75.0546
CC[C@H](C)[C@H](N)C(=O)N[C@@H](CCC(N)=O)C(=O)N[C@@H](CC(C)C)C(=O)N[C@@H](CCCCN)C(=O)N[C@@H](C)C(=O)N[C@@H](CC(C)C)C(=O)N[C@@H](C)C(=O)N[C@@H](C)C(=O)N[C@@H](CC(C)C)C(=O)N[C@@H](C)C(=O)N[C@@H](CCCCN)C(=O)N[C@@H](CCCCN)C(=O)N[C@H](C(=O)N[C@@H](CC(C)C)C(N)=O)[C@@H](C)CC [Q2]	13.2802	33.3572	
CC[C@H](C)[C@H](NC(=O)[C@H](CCCCN)NC(=O)[C@H](CCCCN)NC(=O)[C@H](C)NC(=O)[C@H](CC(C)C)NC(=O)[C@H](C)NC(=O)[C@H](C)NC(=O)[C@H](CC(C)C)NC(=O)[C@H](C)NC(=O)[C@H](CCCCN)NC(=O)[C@H](CC(C)C)NC(=O)[C@H](CC(N)=O)NC(=O)[C@@H](N)CC(C)C)C(=O)N[C@@H](CC(C)C)C(N)=O [L1]	20.4049	57.5292	
CC[C@H](C)[C@H](N)C(=O)N[C@@H](CC(N)=O)C(=O)N[C@@H](CC(C)C)C(=O)N[C@@H](CCCCN)C(=O)N[C@@H](C)C(=O)N[C@@H](CC(C)C)C(=O)N[C@@H](C)C(=O)N[C@@H](C)C(=O)NCC(=O)N[C@@H](C)C(=O)N[C@@H](CCCCN)C(=O)N[C@@H](CCCCN)C(=O)N[C@H](C(=O)N[C@@H](CC(C)C)C(N)=O)[C@@H](C)CC [G9]	7.302	11.2187	
CC[C@H](C)[C@H](NC(=O)[C@H](CCCCN)NC(=O)[C@H](CCCCN)NC(=O)[C@H](C)NC(=O)[C@H](CC(C)C)NC(=O)[C@H](C)NC(=O)[C@H](C)NC(=O)[C@H](CC(C)C)NC(=O)[C@H](C)NC(=O)[C@H](CCCCN)NC(=O)[C@H](CC(C)C)NC(=O)[C@H](CC(N)=O)NC(=O)[C@@H](N)CC(N)=O)C(=O)N[C@@H](CC(C)C)C(N)=O [N1]	8.003	25.1532	
CC[C@H](C)[C@H](N)C(=O)N[C@@H](CC(N)=O)C(=O)N[C@@H](CC(C)C)C(=O)N[C@H](C(=O)N[C@@H](C)C(=O)N[C@@H](CC(C)C)C(=O)N[C@@H](C)C(=O)N[C@@H](C)C(=O)N[C@@H](CC(C)C)C(=O)N[C@@H](C)C(=O)N[C@@H](CCCCN)C(=O)N[C@@H](CCCCN)C(=O)N[C@H](C(=O)N[C@@H](CC(C)C)C(N)=O)[C@@H](C)CC)C(C)C [V4]	3.317	32.9047	
CC[C@H](C)[C@H](N)C(=O)N[C@@H](CC(N)=O)C(=O)N[C@@H](CC(C)C)C(=O)N[C@@H](CCCCN)C(=O)N[C@@H](C)C(=O)N[C@@H](CC(C)C)C(=O)N[C@@H](C)C(=O)N[C@@H](C)C(=O)N[C@@H](CC(C)C)C(=O)N[C@@H](C)C(=O)N[C@@H](CCCCN)C(=O)N[C@@H](CO)C(=O)N[C@H](C(=O)N[C@@H](CC(C)C)C(N)=O)[C@@H](C)CC [S12]	1.96	38.966	
CC[C@H](C)[C@H](N)C(=O)N[C@@H](CC(N)=O)C(=O)N[C@@H](CC(C)C)C(=O)N[C@@H](CCCCN)C(=O)N[C@@H](C)C(=O)N[C@@H](CC(C)C)C(=O)N[C@@H](C)C(=O)N[C@@H](C)C(=O)N[C@@H](CC(C)C)C(=O)N[C@@H](C)C(=O)N[C@@H](Cc1c[nH]cn1)C(=O)N[C@@H](CCCCN)C(=O)N[C@H](C(=O)N[C@@H](CC(C)C)C(N)=O)[C@@H](C)CC [H11]	-0.6179	27.1728	
CC[C@H](C)[C@H](N)C(=O)N[C@H](C(=O)N[C@@H](CC(C)C)C(=O)N[C@@H](CCCCN)C(=O)N[C@@H](C)C(=O)N[C@@H](CC(C)C)C(=O)N[C@@H](C)C(=O)N[C@@H](C)C(=O)N[C@@H](CC(C)C)C(=O)N[C@@H](C)C(=O)N[C@@H](CCCCN)C(=O)N[C@@H](CCCCN)C(=O)N[C@H](C(=O)N[C@@H](CC(C)C)C(N)=O)[C@@H](C)CC)C(C)C [V2]	65.6691	91.4206	
CC[C@H](C)[C@H](NC(=O)[C@H](CCCCN)NC(=O)[C@H](CCCCN)NC(=O)[C@H](C)NC(=O)[C@H](CC(C)C)NC(=O)[C@H](C)NC(=O)[C@H](C)NC(=O)[C@H](CC(C)C)NC(=O)[C@H](C)NC(=O)[C@H](CCCCN)NC(=O)[C@H](CC(C)C)NC(=O)[C@H](CC(N)=O)NC(=O)[C@@H](N)CCCNC(=N)N)C(=O)N[C@@H](CC(C)C)C(N)=O [R1]	-2.103	31.3783	
CC[C@H](C)[C@H](N)C(=O)N[C@@H](CC(N)=O)C(=O)N[C@@H](CC(C)C)C(=O)N[C@@H](CCCCN)C(=O)N[C@@H](C)C(=O)N[C@@H](CC(C)C)C(=O)N[C@@H](C)C(=O)N[C@@H](C)C(=O)N[C@@H](CC(C)C)C(=O)N[C@@H](C)C(=O)N[C@@H](CCCCN)C(=O)N[C@@H](CCCCN)C(=O)N[C@@H](CCC(=O)O)C(=O)N[C@@H](CC(C)C)C(N)=O [E13]	-2.907	42.4043	
CC[C@H](C)[C@H](N)C(=O)N[C@@H](CC(N)=O)C(=O)N[C@@H](CC(C)C)C(=O)N[C@@H](CCCCN)C(=O)N[C@@H](CCCCN)C(=O)N[C@@H](CC(C)C)C(=O)N[C@@H](C)C(=O)N[C@@H](C)C(=O)N[C@@H](CC(C)C)C(=O)N[C@@H](C)C(=O)N[C@@H](CCCCN)C(=O)N[C@@H](CCCCN)C(=O)N[C@H](C(=O)N[C@@H](CC(C)C)C(N)=O)[C@@H](C)CC [K5]	10.3023	39.1552	
CC[C@H](C)[C@H](N)C(=O)N[C@@H](CC(N)=O)C(=O)N[C@@H](CC(C)C)C(=O)N[C@@H](Cc1c[nH]c2ccccc12)C(=O)N[C@@H](C)C(=O)N[C@@H](CC(C)C)C(=O)N[C@@H](C)C(=O)N[C@@H](C)C(=O)N[C@@H](CC(C)C)C(=O)N[C@@H](C)C(=O)N[C@@H](CCCCN)C(=O)N[C@@H](CCCCN)C(=O)N[C@H](C(=O)N[C@@H](CC(C)C)C(N)=O)[C@@H](C)CC [W4]	30.4839	50.1282	
CC[C@H](C)[C@H](N)C(=O)N[C@@H](CC(N)=O)C(=O)N[C@@H](CC(C)C)C(=O)N[C@@H](CCCCN)C(=O)N[C@@H](C)C(=O)N[C@@H](CC(C)C)C(=O)N[C@@H](C)C(=O)N1CCC[C@H]1C(=O)N[C@@H](CC(C)C)C(=O)N[C@@H](C)C(=O)N[C@@H](CCCCN)C(=O)N[C@@H](CCCCN)C(=O)N[C@H](C(=O)N[C@@H](CC(C)C)C(N)=O)[C@@H](C)CC [P8]	-8.536	8.428	
CC[C@H](C)[C@H](N)C(=O)N[C@@H](CC(N)=O)C(=O)N[C@@H](CC(C)C)C(=O)N[C@@H](CCCCN)C(=O)N[C@@H](C)C(=O)N[C@@H](CC(C)C)C(=O)N[C@@H](C)C(=O)N[C@@H](C)C(=O)N[C@@H](CC(C)C)C(=O)N[C@H](C(=O)N[C@@H](CCCCN)C(=O)N[C@@H](CCCCN)C(=O)N[C@H](C(=O)N[C@@H](CC(C)C)C(N)=O)[C@@H](C)CC)C(C)C [V10]	37.352	85.9235	
CC[C@H](C)[C@H](N)C(=O)N[C@@H](CC(N)=O)C(=O)N[C@@H](CCC(=O)O)C(=O)N[C@@H](CCCCN)C(=O)N[C@@H](C)C(=O)N[C@@H](CC(C)C)C(=O)N[C@@H](C)C(=O)N[C@@H](C)C(=O)N[C@@H](CC(C)C)C(=O)N[C@@H](C)C(=O)N[C@@H](CCCCN)C(=O)N[C@@H](CCCCN)C(=O)N[C@H](C(=O)N[C@@H](CC(C)C)C(N)=O)[C@@H](C)CC [E3]	5.899	14.5974	
CC[C@H](C)[C@H](N)C(=O)N[C@@H](CC(N)=O)C(=O)N[C@@H](CC(C)C)C(=O)N[C@@H](CCCCN)C(=O)N[C@@H](C)C(=O)N[C@@H](CC(C)C)C(=O)N[C@@H](C)C(=O)N[C@@H](C)C(=O)N[C@@H](CC(C)C)C(=O)N[C@@H](C)C(=O)N[C@@H](CCCCN)C(=O)N[C@@H](CCCCN)C(=O)N[C@@H](Cc1c[nH]c2ccccc12)C(=O)N[C@@H](CC(C)C)C(N)=O [W13]	24.9289	70.7641	
